{
  "source": "patent US8816078B2",
  "about": "“Acidic gas removal by aqueous amine solvents” (Board of Regents, The University of Texas System, priority 2010, dated 2014)",
  "key": {"[1]": {"experiment": "Cyclic CO2 capacity calculated from the regressed VLE model", "type": "physicochemical"}, "[2]": {"experiment": "Heat of CO2 absorption calculated from the VLE model", "type": "physicochemical", "experimental": "VLE models of CO2 partial pressure were regressed from experimental data to calculate CO2 capacity and enthalpy of CO2 absorption (ΔHabs).\nHeat of absorption was calculated from the model mentioned above by applying the following thermodynamic equation: […]\nHeat of absorption was calculated from the model mentioned above by applying the Gibbs-Helmholtz equation: […]\nThe heat absorption of CO2 at a 1.5 kPa, which is an average CO2 partial pressure for lean and rich solutions, was calculated."}, "[3]": {"experiment": "Solubility and solids precipitation limits of amines in water", "type": "physicochemical"}, "[4]": {"experiment": "Solubility measurements of CO2 loaded PZ/1-MPZ/1,4-DMPZ blends", "type": "physicochemical", "experimental": "Solubility measurements for CO2 loaded 3.9 m PZ/3.9 m 1-MPZ/0.2 m 1,4-DMPZ and 3.75 m PZ/3.75 m 1-MPZ/0.5 m 1,4-DMPZ solutions were taken to predict the solubility envelope of these blends. The solubility of the blends at varying loadings and temperatures are shown in FIG. 7 for the 3.9 m PZ/3.9 m 1-MPZ/0.2 m 1,4-DMPZ blend and in FIG. 8 for the 3.75 m PZ/3.75 m 1-MPZ/0.5 m 1,4-DMPZ blend. […] At 0° C., the 8 m blend: 3.75 m PZ/3.75 m 1-MPZ/0.5 m […] was soluble at 2° C. with a lean loading of 0.17 mol CO2/mol alkalinity, in contrast to 8 m PZ, which must be operated at loading above 0.3 to avoid solids precipitation.\nA maximum CO2 loading of 0.41 and 0.39 was obtained for the 3.9 m PZ/3.9 m 1-MPZ/0.2 m 1,4-DMPZ blend and the 3.75 m PZ/3.75 m 1-MPZ/0.5 m 1,4 DMPZ blend respectively at room temperature without any solid precipitation. Intermediary loaded solutions were prepared by appropriately mixing the rich loaded and zero loaded solutions and observed at temperatures between 0° C. and the melting point of the solution."}, "[5]": {"details": "for PCO2* at 40° C.: calculated from CO2 solubility curves"}, "[6]": {"details": "Freeman et al., 2009; cited from earlier work"}, "[7]": {"details": "25° C.; cited from earlier work"}, "[8]": {"details": "Conc. (m): MDEA/PZ 7/2, PZ 8, MEA 7, HEP 7.7, AEP 6, 2-PE 8, AMP 4.8, EDA 12, DGA 10, PZ-MPZ 4/4, MPZ 8"}, "[9]": {"details": "CO2 Loading 0.035 mol/mole Alkalinity"}, "[10]": {"details": "CO2 Loading 0.037 mol/mole Alkalinity"}, "[11]": {"details": "CO2 Loading 0.102 mol/mole Alkalinity"}, "[12]": {"details": "CO2 Loading 0.104 mol/mole Alkalinity"}, "[13]": {"details": "CO2 Loading 0.156 mol/mole Alkalinity"}, "[14]": {"details": "CO2 Loading 0.158 mol/mole Alkalinity"}, "[15]": {"details": "CO2 Loading 0.209 mol/mole Alkalinity"}, "[16]": {"details": "CO2 Loading 0.217 mol/mole Alkalinity"}, "[17]": {"details": "CO2 Loading 0.251 mol/mole Alkalinity"}, "[18]": {"details": "CO2 Loading 0.266 mol/mole Alkalinity"}, "[19]": {"details": "CO2 Loading 0.303 mol/mole Alkalinity"}, "[20]": {"details": "CO2 Loading 0.313 mol/mole Alkalinity, listed as 8 m PZ"}, "[21]": {"details": "CO2 Loading 0.313 mol/mole Alkalinity, listed as 10 m PZ"}, "[22]": {"details": "CO2 Loading 0.330 mol/mole Alkalinity"}},
  "note": "Read-outs that look alike come from different tables or passages of the source.",
  "data": [
    {"smiles": "C1CNCCN1", "note": "[PZ, piperazine]", "values": [
      {"measurement": "CO2 Capacity", "setting": "[1]; [8]", "value": "0.79 mol/kg (water + amine)"},
      {"measurement": "cyclic CO2 capacity", "setting": "[1]; difference between lean and rich CO2 loading at 500 Pa and 5,000 Pa CO2 partial pressure", "value": "0.79 mol CO2/kg (water+amine)"},
      {"measurement": "Heat of CO2 absorption (ΔHabs)", "setting": "[2]; 8 m MPZ, 4 m PZ/4 m MPZ blend, 8 m PZ", "value": 16.7, "unit": "kcal/mol"},
      {"measurement": "ΔHabs@PCO2 = 1.5 kPa", "setting": "[2]; [8]", "value": 16.7, "unit": "kcal/mol"},
      {"measurement": "heat absorption of CO2", "setting": "[2]; at 1.5 kPa CO2 partial pressure", "value": 16.7, "unit": "kcal/mol"},
      {"measurement": "oxidative degradation", "setting": "[3]", "value": "resistant to oxidative degradation"},
      {"measurement": "CO2 loading below which PZ.6 H2O solids precipitate", "setting": "[3]; 0° C.", "value": "less than 0.3"},
      {"measurement": "CO2 loading above which protonated piperazine carbamate precipitates", "setting": "[3]; ambient temperature", "value": "greater than 0.45 moles/equivalent amine"},
      {"measurement": "solubility in water", "setting": "[3]; zero CO2 loading, ambient temperatures, precipitation of PZ.6H2O", "value": "about 2 m"},
      {"measurement": "CO2 loadings at which solid H+PZCOO−.H2O is formed", "setting": "[4]", "value": "≥ 0.43"},
      {"measurement": "loading above which the solvent must be operated to avoid solids precipitation", "setting": "[4]; 0° C.", "value": "above 0.3"},
      {"measurement": "CO2 loadings at which solid PZ.6H2O is formed", "setting": "[4]; 25° C.", "value": "≤ 0.22"},
      {"measurement": "PCO2* at 40° C.", "setting": "[5]; CO2 Loading 0 mol/mole Alkalinity", "value": 0.0014, "unit": "kPa"},
      {"measurement": "Transition Temp", "setting": "[5]; CO2 Loading 0 mol/mole Alkalinity, listed as 8 m PZ", "value": 43.0, "unit": "°C"},
      {"measurement": "Transition Temp", "setting": "[5]; CO2 Loading 0 mol/mole Alkalinity, listed as 10 m PZ", "value": 43, "unit": "°C"},
      {"measurement": "Transition Temp", "setting": "[5]; [9]", "value": 40.0, "unit": "°C"},
      {"measurement": "PCO2* at 40° C.", "setting": "[5]; [9]", "value": 0.0023, "unit": "kPa"},
      {"measurement": "Transition Temp", "setting": "[5]; [10]", "value": 40.5, "unit": "°C"},
      {"measurement": "PCO2* at 40° C.", "setting": "[5]; [10]", "value": 0.0023, "unit": "kPa"},
      {"measurement": "Transition Temp", "setting": "[5]; [11]", "value": 38.5, "unit": "°C"},
      {"measurement": "PCO2* at 40° C.", "setting": "[5]; [11]", "value": 0.0068, "unit": "kPa"},
      {"measurement": "Transition Temp", "setting": "[5]; [12]", "value": 38.5, "unit": "°C"},
      {"measurement": "PCO2* at 40° C.", "setting": "[5]; [12]", "value": 0.0070, "unit": "kPa"},
      {"measurement": "Transition Temp", "setting": "[5]; [13]", "value": 35, "unit": "°C"},
      {"measurement": "PCO2* at 40° C.", "setting": "[5]; [13]", "value": 0.0179, "unit": "kPa"},
      {"measurement": "Transition Temp", "setting": "[5]; [14]", "value": 33.0, "unit": "°C"},
      {"measurement": "PCO2* at 40° C.", "setting": "[5]; [14]", "value": 0.0185, "unit": "kPa"},
      {"measurement": "Transition Temp", "setting": "[5]; [15]", "value": 26.5, "unit": "°C"},
      {"measurement": "PCO2* at 40° C.", "setting": "[5]; [15]", "value": 0.0499, "unit": "kPa"},
      {"measurement": "Transition Temp", "setting": "[5]; [16]", "value": 27, "unit": "°C"},
      {"measurement": "PCO2* at 40° C.", "setting": "[5]; [16]", "value": 0.0589, "unit": "kPa"},
      {"measurement": "Transition Temp", "setting": "[5]; [17]", "value": 18.0, "unit": "°C"},
      {"measurement": "PCO2* at 40° C.", "setting": "[5]; [17]", "value": 0.1216, "unit": "kPa"},
      {"measurement": "Transition Temp", "setting": "[5]; [18]", "value": 18, "unit": "°C"},
      {"measurement": "PCO2* at 40° C.", "setting": "[5]; [18]", "value": 0.1679, "unit": "kPa"},
      {"measurement": "Transition Temp", "setting": "[5]; [19]", "value": 3.0, "unit": "°C"},
      {"measurement": "PCO2* at 40° C.", "setting": "[5]; [19]", "value": 0.3892, "unit": "kPa"},
      {"measurement": "PCO2* at 40° C.", "setting": "[5]; [20]", "value": 0.4862, "unit": "kPa"},
      {"measurement": "PCO2* at 40° C.", "setting": "[5]; [21]", "value": 0.4830, "unit": "kPa"},
      {"measurement": "Transition Temp", "setting": "[5]; [20]", "value": 0, "unit": "°C"},
      {"measurement": "Transition Temp", "setting": "[5]; [21]", "value": 5.5, "unit": "°C"},
      {"measurement": "Transition Temp", "setting": "[5]; [22]", "value": 0, "unit": "°C"},
      {"measurement": "PCO2* at 40° C.", "setting": "[5]; [22]", "value": 0.7252, "unit": "kPa"},
      {"measurement": "CO2 loading needed to maintain an aqueous solution", "setting": "[5]; room temperature (21° C.)", "value": "0.23 mole CO2 per mole alkalinity"},
      {"measurement": "highest CO2 loading usable without risk of solid precipitation", "setting": "[5]; solvent at 0° C.", "value": "≤ 0.4", "unit": "moles CO2/equiv PZ"},
      {"measurement": "lowest CO2 loading usable without risk of solid precipitation", "setting": "[5]; solvent at 0° C.", "value": "≥ 0.3", "unit": "moles CO2/equiv PZ"},
      {"measurement": "temperature up to which highly resistant to thermal degradation", "setting": "[6]", "value": "up to 150 °C"},
      {"measurement": "solubility in water", "setting": "[7]", "value": "less than 2 M"}
    ]}
  ]
}
